According to the CheMixHub drug solubility set:

Test: xn = mol fraction of the nth substance listed, in the solute-free solvent

O=c1ccc2ccccc2o1 + CC(C)=O + O
solubility (g/100 g solution)
Conditions	x2 = 0.1	x2 = 0.2	x2 = 0.3	x2 = 0.4	x2 = 0.5	x2 = 0.6	x2 = 0.7	x2 = 0.8	x2 = 0.9
268.15 K	0.474	2.21	4.51	9.81	13.8	17.1	19.9	21.9	23.1
273.15 K	0.611	2.81	6.5	11.9	16.8	20.6	23.7	25.8	26.9
278.15 K	0.798	3.96	8.98	15.3	20.9	25	27.8	30.6	31.5
283.15 K	1.05	5.18	12.2	19.5	25.5	30.2	33.1	35.3	36.2
288.15 K	1.38	6.75	16.8	24.6	31.4	36	39.3	41.2	41.8
293.15 K	1.8	9.24	22.3	31.3	38.5	42.9	46.2	47.7	48
298.15 K	2.27	12.3	29.6	38.4	45.7	49.6	52.6	53.6	53.9
303.15 K	2.96	16.8	37.4	47	53.9	57.2	59.4	59.8	59.8

CN1CCN(C(=O)OC2c3nccnc3C(=O)N2c2ccc(Cl)cn2)CC1 (stereo not given) + CC#N + O
solubility (g/100 g solution)
Conditions	x2 = 0.3	x2 = 0.4	x2 = 0.5	x2 = 0.6	x2 = 0.7	x2 = 0.8	x2 = 0.9
288.15 K	0.593	1.13	2.08	2.78	3.27	3.38	2.87
298.15 K	0.785	1.72	2.61	3.38	4.09	4.14	3.55
308.15 K	0.997	2.11	3.4	4.41	5.3	5.38	4.63
318.15 K	1.26	2.67	4.26	5.76	6.74	7.02	6.08
328.15 K	1.77	3.23	5.56	7.47	8.64	8.93	8.18

O=C1NS(=O)(=O)c2ccccc21 + CC#N + CC(C)O
solubility (g/100 g solution)
Conditions	x2 = 0.0998	x2 = 0.2002	x2 = 0.2999	x2 = 0.3996	x2 = 0.5004	x2 = 0.5997	x2 = 0.7001	x2 = 0.7997	x2 = 0.8996
293.15 K	4.08	5.79	7.19	8.27	8.87	8.79	8.19	7	5.08
298.15 K	4.75	6.64	8.05	9.07	9.79	9.66	8.97	7.68	5.75
303.15 K	5.49	7.5	9.3	10.4	11.2	10.8	10.1	8.77	6.38
308.15 K	6.33	8.56	10.5	11.7	12.3	12.3	11.5	9.73	7.32
313.15 K	7.35	10	12.1	13.4	14.2	14.1	13.1	11.2	8.37
318.15 K	8.79	11.8	14.1	15.5	16.3	16.2	15.1	12.9	9.59
323.15 K	10.3	13.5	16	17.6	18.3	18	16.8	14.3	10.7

Cc1ccc(Nc2nccc(N(C)c3ccc4c(C)n(C)nc4c3)n2)cc1S(N)(=O)=O + CC#N + CC(C)O
solubility (g/100 g solution)
Conditions	288.15 K	293.15 K	298.15 K	303.15 K	308.15 K	313.15 K	318.15 K	323.15 K	328.15 K
x2 = 0.2679	0.00834	0.0123	0.0162	0.0208	0.0257	0.0311	0.0374	0.0456	0.0557
x2 = 0.4939	0.0116	0.0198	0.0273	0.0362	0.0457	0.0552	0.0651	0.0758	0.0876
x2 = 0.6871	0.0161	0.0249	0.0344	0.0445	0.0553	0.0662	0.079	0.0943	0.113
x2 = 0.8541	0.0119	0.0172	0.0243	0.0311	0.0393	0.0478	0.0563	0.0666	0.0803

CN1CCN(C(=O)OC2c3nccnc3C(=O)N2c2ccc(Cl)cn2)CC1 (stereo not given) + CCO + O
solubility (g/100 g solution)
Conditions	x2 = 0.3	x2 = 0.4	x2 = 0.5	x2 = 0.6	x2 = 0.7	x2 = 0.8	x2 = 0.9
288.15 K	0.129	0.242	0.377	0.527	0.59	0.511	0.375
298.15 K	0.208	0.397	0.63	0.85	0.998	0.9	0.647
308.15 K	0.296	0.666	1.02	1.32	1.43	1.3	0.911
318.15 K	0.474	0.988	1.51	2.03	2.31	2.12	1.53
328.15 K	0.818	1.65	2.51	3.27	3.65	3.31	2.53

CC(=O)Nc1ccc(OC(=O)c2ccccc2OC(C)=O)cc1 + CCO + O
solubility (g/100 g solution)
Conditions	278.15 K	283.15 K	288.15 K	293.15 K	298.15 K	303.15 K	308.15 K	313.15 K	318.15 K
x2 = 0.04165	0.00299	0.00439	0.00634	0.00913	0.0133	0.0185	0.0258	0.0351	0.0474
x2 = 0.08908	0.00839	0.0122	0.0171	0.0242	0.0339	0.0464	0.0629	0.0839	0.112
x2 = 0.1436	0.0202	0.0284	0.0401	0.0539	0.0744	0.0995	0.133	0.175	0.232
x2 = 0.2068	0.037	0.0513	0.0699	0.0951	0.127	0.166	0.221	0.283	0.366
x2 = 0.2812	0.0604	0.0826	0.111	0.146	0.19	0.252	0.322	0.409	0.514
x2 = 0.3698	0.082	0.109	0.148	0.197	0.255	0.33	0.424	0.542	0.69
x2 = 0.4772	0.108	0.144	0.193	0.254	0.327	0.418	0.536	0.684	0.863
x2 = 0.6101	0.134	0.178	0.236	0.306	0.396	0.513	0.661	0.829	1.04
x2 = 0.7788	0.157	0.206	0.273	0.356	0.458	0.586	0.741	0.936	1.18

Cc1ccc(Nc2nccc(N(C)c3ccc4c(C)n(C)nc4c3)n2)cc1S(N)(=O)=O + CC#N + CCCO
solubility (g/100 g solution)
Conditions	288.15 K	293.15 K	298.15 K	303.15 K	308.15 K	313.15 K	318.15 K	323.15 K	328.15 K
x2 = 0.2679	0.0118	0.0186	0.0265	0.0356	0.0456	0.0555	0.066	0.0779	0.0924
x2 = 0.4939	0.0196	0.031	0.0432	0.057	0.0716	0.0875	0.104	0.123	0.145
x2 = 0.6871	0.0177	0.0276	0.0399	0.0523	0.0687	0.0849	0.102	0.12	0.143
x2 = 0.8541	0.0117	0.0175	0.0245	0.0326	0.0408	0.0514	0.0625	0.075	0.0903

O=C(CC(=O)c1ccccc1)c1ccccc1 + CC(C)O + O
solubility (g/100 g solution)
Conditions	278.15 K	283.15 K	288.15 K	293.15 K	298.15 K	303.15 K	308.15 K	313.15 K	318.15 K
x2 = 0.2	0.0987	0.114	0.14	0.185	0.222	0.277	0.338	0.422	0.528
x2 = 0.4	0.264	0.353	0.459	0.618	0.711	1.05	1.26	1.73	4.77
x2 = 0.6	0.61	0.936	1.23	1.34	1.47	1.91	2.36	3.27	4.94
x2 = 0.8	0.977	1.43	1.48	2.1	2.32	2.93	3.69	4.5	7.02

CCCCN1CCCCC1C(=O)Nc1c(C)cccc1C.Cl.O (stereo not given) + CCO + O
solubility (g/100 g solution)
Conditions	293.15 K	298.15 K	303.15 K	308.15 K	313.15 K	318.15 K	323.15 K	328.15 K	333.15 K
x2 = 0.1	3.04	3.34	4.11	4.86	5.9	7.35	9.3	11.2	12.9
x2 = 0.2	3.1	3.37	4.04	4.84	6.41	7.92	10.1	12.9	15.1
x2 = 0.3	2.9	3.27	3.99	5.42	7.36	9.56	12.4	15.8	19
x2 = 0.4	2.85	3.29	4.28	5.77	7.83	10.9	14.2	18.3	22.9
x2 = 0.5	2.81	3.22	4.31	5.96	8.48	11.3	14.9	19.4	23.9
x2 = 0.6	3.15	3.43	4.62	6.22	8.61	11.5	15.1	19.4	23.7
x2 = 0.7	3.44	3.95	5.29	7.07	9.34	12.3	16.1	20.6	25
x2 = 0.8	3.84	4.16	5.55	7.29	9.54	12.4	15.9	20.2	24.7
x2 = 0.9	3.83	4.34	5.57	7.26	9.51	12.2	15.5	19.6	24
